According to patent publication US20130345218A1 (Vertex Pharmaceuticals Incorporated, priority 2010, published 2013):
Where two headings read alike, the source gives them in different places.

Legend:
[1] = system: influenza A virus (A/PR/8/34); test: microbe, parasite or virus in culture; assay type: cell-based; conditions: Influenza A virus, PR/8, MDCK, MDCK cells
[2] = system: influenza A virus (A/PR/8/34) minus-strand viral RNA; test: microbe, parasite or virus in culture; assay type: cell-based; conditions: Influenza A virus, PR/8
influenza infection = test: Influenza therapeutic mouse model (survival, body weight, whole body plethysmography); assay type: in vivo; conditions: Balb/c mice, dosing @ 48 hours post infection with 30 mg/kg BID X 10 days
[3] = 72 h, mean IC50 (mean all), A/PR/8/34, 72 hours, read-out: Flu, MDCK IC50
[4] = mean EC50 (mean all), viral RNA by bDNA, read-out: bDNA EC50

Compound | IC50 [1, 3] [µM] | IC50 ([1]; CPE assay, A/PR/8/34, read-out: IC50) [µM] | EC50 ([2]; bDNA assay, read-out: EC50) [µM] | EC50 [2, 4] [µM] | Percent Weight Loss (Day 8) (influenza infection; post challenge day 8) [%] | Percent Survival (influenza infection; scored for 21 days) [%] | WBP (Penh; Day 6) (influenza infection; whole body plethysmography)
O=C(O)[C@H]1C2CCC(CC2)[C@@H]1Nc1nc(-c2c[nH]c3ncc(F)cc23)c(F)cc1F [Compound I-28, (2S,3S)-3-((3,5-difluoro-6-(5-fluoro-1H-pyrrolo[2,3-b]pyridin-3-yl)pyridin-2-yl)amino)bicyclo[2.2.2]octane-2-carboxylic acid] | < 3.3 | 0.005 | 0.005 | < 3.3 | 24.8 | 100 | 1.84
N#Cc1cc(F)c(N[C@H]2CCC[C@@H](NC(=O)N3CC[C@H](F)C3)C2)nc1-c1c[nH]c2ncc(F)cc12 [Compound I-43, (S)—N-((1R,3S)-3-((5-cyano-3-fluoro-6-(5-fluoro-1H-pyrrolo[2,3-b]pyridin-3-yl)pyridin-2-yl)amino)cyclohexyl)-3-fluoropyrrolidine-1-carboxamide] | < 3.3 | – | – | < 3.3 | – | – | –
O=C(O)[C@@H]1C2CCC(CC2)[C@H]1Nc1cnnc(-c2c[nH]c3ncc(F)cc23)n1 [Compound I-45] | ≥ 3.3 | – | – | > 3.3 | – | – | –
O=C(O)[C@H]1C2CCC(CC2)[C@@H]1Nc1cnnc(-c2c[nH]c3ncc(F)cc23)n1 [Compound I-46] | < 3.3 | – | – | < 3.3 | – | – | –
O=C(N[C@@H]1CCC[C@H](Nc2nc(-c3c[nH]c4ncc(F)cc34)c(F)cc2F)C1)c1ccsc1 [Compound I-47, N-((1R,3S)-3-((3,5-difluoro-6-(5-fluoro-1H-pyrrolo[2,3-b]pyridin-3-yl)pyridin-2-yl)amino)cyclohexyl)thiophene-3-carboxamide] | < 3.3 | – | – | < 3.3 | – | – | –
O=C(N[C@@H]1CCC[C@H](Nc2nc(-c3c[nH]c4ncc(F)cc34)c(F)cc2F)C1)c1csc(Cl)c1 [Compound I-48, 5-chloro-N-((1R,3S)-3-((3,5-difluoro-6-(5-fluoro-1H-pyrrolo[2,3-b]pyridin-3-yl)pyridin-2-yl)amino)cyclohexyl)thiophene-3-carboxamide] | < 3.3 | – | – | < 3.3 | – | – | –
